Results taken from patent US10004751B2, “Compositions and methods for treating Dengue virus infection” (The J. David Gladstone Institutes, priority 2014, dated 2018).

Tested on: DENV
Test: DENV replication in Huh7 cells treated with ARFGAP1 inhibitor
Format: cell-based, Dengue virus
Conditions: DENV MOI of 0.5, increasing concentrations, 24 hours post-infection
Experimental: Human hepatoma Huh7 cells were infected with DENV (MOI of 0.5) and treated with increasing concentrations of QS 11. Viral RNA synthesis, DENV capsid protein levels, and infectious virion production were measured at 24 hours post-infection.

In the case of `OC[C@H](Cc1ccccc1)Nc1nc(Oc2ccc3c(c2)CCC3)nc2c1ncn2Cc1ccc(-c2ccccc2)cc1` [QS 11], the “Viral RNA synthesis” value (FIG. 6A) is reported as “reduced viral RNA synthesis”, the “DENV capsid protein levels” value (FIG. 6B) is reported as “reduced” and the Infectious virion production (FIG. 6C) is reported as “reduced”.
